The values that follow come from US20220194938A1, “NOVEL COMPOUNDS AND PHARMACEUTICAL COMPOSITIONS THEREOF FOR THE TREATMENT OF INFLAMMATORY DISORDERS” (GALAPAGOS NV, priority 2019, published 2022).

Series [1] has as its system pooled cryopreserved hepatocytes. Put plainly: Metabolic stability in hepatocytes (mouse). The following applies: 1 μM test compound. The format is in vitro ADME. The gist of the method: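 Test compound at 1 μM (0.03% DMSO) incubated with 0.5 million viable pooled cryopreserved hepatocytes/mL at 37° C with shaking; sampled 0–180 min. Parent loss measured by LC-MS/MS versus time-zero, and intrinsic clearance derived from percentage-remaining plots, scaled to L/h/kg and corrected for hepatocyte binding.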

Another series can be described thus: Thermodynamic solubility. It counts as physicochemical. The following applies: thermodynamic from solid, 37° C. The text has this: 4.2. Thermodynamic Solubility
Poor solubility, in particular poor thermodynamic solubility can limit the absorption of compounds from the gastrointestinal tract which in turn may reduce oral bioavailability.
Thermodynamic solubility investigates the solubility of a compound as a saturated solution in equilibrium, by opposition to kinetic solubility, which measures the solubility of a metastable solution where supersaturation may occur and provide over estimation of the actual solubility of the compound. (Klein 2010)
4.2.1. Thermodynamic Solubility—Protocol 1
In a 8 mL glass vial, 1-2 mg of dry matter of compound are added and stirred with the suitable buffers (Fed State Simulated Intestine Fluid, FeSSIF, or Fasted State Simulated Intestine Fluid, FaSSIF, or Fasted State Simulated Gastric Fluid, FaSSGF, or phosphate buffer pH 7.4) for 24 h at r.t. (for the buffer pH 7.4) or 37° C. (for the GI fluids). The concentration of the mixture is 1 mg/mL.
A volume of 500 μL are sampled, centrifuged for 10 min at 10 000 rpm and filtered. The samples are diluted in duplicates in DMSO (F100 and F10). Then, a final dilution (F100) in 80/20 H2O/MeCN containing the internal standard (warfarin) is used for LCMS-MS analysis.
A standard curve is made starting from a 200,000 ng/mL stock in DMSO, freshly prepared from dry matter. Then, successive concentrations at […], 1,000, 200 and 75 ng/mL in DMSO are prepared by using the Tecan robot.
Two quality control samples are made: one of 10,000 ng/mL and one of 500 ng/mL in DMSO, also starting from the DMSO working stock solution at 200,000 ng/mL.
The standard curve and quality controls are diluted a F100 in 80/20 H2O/MeCN (with internal standard) and analyzed on LC/MS-MS (API4000 or API5500).
The samples are analyzed on LC-MS with a flow rate of 0.6 mL/min. The mobile phase A is 0.1% formic acid in water and the mobile phase B is 0.1% formic acid in MeCN. The sample is run under positive or negative ion spray on Pursuit C18-5 μm (2.0×20 mm) column, from Agilent.
The peak areas of the standard curve are plotted in a graph and a linear or polynomial of the second order equation is used to calculate the unknown concentrations of the test compound.
4.2.2. Thermodynamic Solubility—Protocol 2
In an 8 mL glass vial, 1-2 mg of dry matter of compound were added and stirred with the suitable buffers (Fed State Simulated Intestine Fluid, FeSSIF, or Fasted State Simulated Intestine Fluid, FaSSIF, or Fasted State Simulated Gastric Fluid, FaSSGF, or phosphate buffer pH 7.4) for 24 h at r.t. (for the buffer pH 7.4) or 37° C. (for the GI fluids). The concentration of the mixture was 1 mg/mL.
A volume of 1000 μL were sampled, centrifuged for 10 min at 10 000 rpm and 500 μL of the supernatant were filtered on captiva plate. The samples were diluted in duplicates in DMSO (F100 and F10). Then, a final dilution (F100) in 80/20 H2O/MeCN containing the internal standard (warfarin) was used for LCMS-MS analysis.
A standard curve was made starting from a 40,000 ng/mL stock in DMSO, freshly prepared from dry matter. Then, successive concentrations at 15,000, 11,000, 6,000, 2,500, 1,000, 375, 150 and 75 ng/mL in DMSO were prepared.
Three quality control samples were made: one of 10,000, 1,500 and 200 ng/mL in DMSO, also starting from the DMSO working stock solution at 40,000 ng/mL.
The standard curve and quality controls were diluted a F100 in 80/20 H2O/MeCN (with internal standard) and analyzed on LC/MS-MS (API4000 or API5500).
The samples were analyzed on LC-MS with a flow rate of 0.6 mL/min. The mobile phase A was 0.1% formic acid in water and the mobile phase B was 0.1% formic acid in 90% acetonitrile and 10% of water. The sample was run under positive or negative ion spray on Pursuit C18-5 μm (2.0×20 mm) column, from Agilent. […]

Where [2] appears, read: Fasted State Simulated Gastric Fluid (FaSSGF), fassgf or other biorelevant, Fasted State Simulated Gastric Fluid, read-out: Tsol FaSSGF.
Where [3] appears, read: Fasted State Simulated Intestine Fluid (FaSSIF), fassif, Fasted State Simulated Intestine Fluid, read-out: Tsol FaSSIF.
[4] abbreviates: Fed State Simulated Intestine Fluid (FeSSIF), fessif, Fed State Simulated Intestine Fluid, read-out: Tsol FeSSIF.

Structures are written as SMILES. ≈ marks a conversion by molar mass, not a printed value. Like-named read-outs stand apart in the source and are kept apart here.

Turning to `CC(C)(O)CCc1cn2cc(NC(=O)c3cccc(C(F)(F)F)n3)c(C(N)=O)cc2n1` [Compound 31, 2-(3-hydroxy-3-methyl-butyl)-6-[[6-(trifluoromethyl)pyridine-2-carbonyl]amino]imidazo[1,2-a]pyridine-7-carboxamide], in series [1], the “Mouse (Perc. remaining at 90 min)” value is recorded as 96.5%. Besides, the solubility thermodynamic at 24 h in “Thermodynamic solubility” (setting [2]) is greater than 1000 µg/mL; in “Thermodynamic solubility” (setting [3]), 2.97 µg/mL (≈ 6.82 µM); in “Thermodynamic solubility” (setting [4]), 4.4 µg/mL (≈ 10.1 µM).

On to `COc1cc2nc(CCC(C)(C)O)cn2cc1NC(=O)c1cccn(C(F)F)c1=O` [Compound 12, 1-(difluoromethyl)-N-[2-(3-hydroxy-3-methyl-butyl)-7-methoxy-imidazo[1,2-a]pyridin-6-yl]-2-oxo-pyridine-3-carboxamide], for which the “Mouse (Perc. remaining at 90 min)” value in series [1] came out at 88.1%. Moreover, the solubility thermodynamic at 24 h was greater than 1000 µg/mL in “Thermodynamic solubility” (setting [2]) and 188 µg/mL (≈ 447 µM) in “Thermodynamic solubility” (setting [3]).

On to `COc1cc2nc(CCC(C)(C)O)cn2cc1NC(=O)c1cccc(C)n1` [Compound 6, N-[2-(3-hydroxy-3-methyl-butyl)-7-methoxy-imidazo[1,2-a]pyridin-6-yl]-6-methyl-pyridine-2-carboxamide], for which, in series [1], the “Mouse (Perc. remaining at 90 min)” value was determined as 4.5%. In the series “Thermodynamic solubility” (setting [3]), the solubility thermodynamic at 24 h is 692 µg/mL (≈ 1880 µM).

As to `COCCc1cn2cc(NC(=O)c3cccc(C(F)(F)F)n3)c(OC)cc2n1` [Compound 35, N-[7-methoxy-2-(2-methoxyethyl)imidazo[1,2-a]pyridin-6-yl]-6-(trifluoromethyl)pyridine-2-carboxamide], the “Mouse (Perc. remaining at 90 min)” value in series [1] is reported as 25.85%. In addition, the solubility thermodynamic at 24 h in the series “Thermodynamic solubility” (setting [3]) was less than 30 µg/mL.

Consider `COc1cc2nc(CCS(C)(=O)=O)cn2cc1NC(=O)c1cccn(C2CC2)c1=O` [Compound 25, 1-cyclopropyl-N-[7-methoxy-2-(2-methylsulfonylethyl)imidazo[1,2-a]pyridin-6-yl]-2-oxo-pyridine-3-carboxamide], for which the “Mouse (Perc. remaining at 90 min)” value in series [1] came out at 95.05%. Also, the solubility thermodynamic at 24 h in the series “Thermodynamic solubility” (setting [3]) was 41.5 µg/mL (≈ 96.4 µM).

Consider `COc1cc2nc(CCC(C)(C)O)cn2cc1NC(=O)c1cccc(C(F)F)n1` [Compound 7, 6-(difluoromethyl)-N-[2-(3-hydroxy-3-methyl-butyl)-7-methoxy-imidazo[1,2-a]pyridin-6-yl]pyridine-2-carboxamide], for which, in series [1], the “Mouse (Perc. remaining at 90 min)” value is 26.4%. Also, in the series “Thermodynamic solubility” (setting [3]), the solubility thermodynamic at 24 h is 15.2 µg/mL (≈ 37.6 µM).

For the compound `COc1cc2nc(CCC(C)(C)O)cn2cc1NC(=O)c1cccn(C2CCC2)c1=O` [Compound 18, 1-cyclobutyl-N-[2-(3-hydroxy-3-methyl-butyl)-7-methoxy-imidazo[1,2-a]pyridin-6-yl]-2-oxo-pyridine-3-carboxamide], in series [1], the “Mouse (Perc. remaining at 90 min)” value amounted to 60.9%. Further, the solubility thermodynamic at 24 h in the series “Thermodynamic solubility” (setting [3]) is 253 µg/mL (≈ 596 µM).

As for `COc1cc2nc(CCC(C)(C)O)cn2cc1NC(=O)c1cccn(CC(F)(F)F)c1=O` [Compound 13, N-[2-(3-hydroxy-3-methyl-butyl)-7-methoxy-imidazo[1,2-a]pyridin-6-yl]-2-oxo-1-(2,2,2-trifluoroethyl)pyridine-3-carboxamide], in series [1], the “Mouse (Perc. remaining at 90 min)” value was 109.5%. Also, in the series “Thermodynamic solubility” (setting [3]), the solubility thermodynamic at 24 h is 600 µg/mL (≈ 1330 µM).

Consider `COc1cc2nc(CCC(C)(C)O)cn2cc1NC(=O)c1cccc(C(F)(F)F)n1` [Compound 3, N-[2-(3-hydroxy-3-methyl-butyl)-7-methoxy-imidazo[1,2-a]pyridin-6-yl]-6-(trifluoromethyl)pyridine-2-carboxamide], for which the “Mouse (Perc. remaining at 90 min)” value in series [1] came out at 39.9%. Moreover, the values for the solubility thermodynamic at 24 h in the series “Thermodynamic solubility” (setting [2]), in “Thermodynamic solubility” (setting [3]) and in the series “Thermodynamic solubility” (setting [4]) were 880 µg/mL (≈ 2080 µM), 31.4 µg/mL (≈ 74.3 µM) and 360 µg/mL (≈ 852 µM), respectively.
